This is an account of results in patent US20230304097A1, “PREDICTING CANCER RELAPSE AND TREATMENT OF CANCER DISEASES” (priority 2020, published 2023).

The subject of series [1] is GTS cells. The series can be described thus: Drug treatment and proliferation assay (Resazurin/Alamar blue), recurrent tumor cells. Type of series: cell-based, mouse. As for the experimental part: Tumor cells (GTML, GTS and preGTS) were isolated as previously described from tumor bearing mice (Cancer Cell 2012, 21: 601-613) and cultured as neurospheres in serum-free conditions with Neurobasal (NB) media, additional B27 supplement, 100 units Penicillin and 0.1 mg/ml Streptomycin, 2 mM L-glutamine, 1:500 Antibiotic-Antimycotic, 20 ng/ml EGF and 20 ng/ml FGF-2. Human MB002 primary cell culture was obtained from Dr. Yoon Jae-Cho and cultured in serum-free conditions, 1:1 of Neurobasal Media (-vitamin A) and DMEM/F12 with Sodium Pyruvate, NEAA, HEPES, GlutaMAX, 100 units Penicillin and 0.1 mg/ml Streptomycin, B27 supplement, 20 ng/ml EGF and 20 ng/ml FGF-2, 1X LIF and 1X Heparin as previously described Clin Cancer Res 2014, 20: 912-925. Stable doxycycline-inducible SOX9wt and SOX9CPD mutant cell lines were generated as described (EMBO J 2016, 35: 2192-2212), lentiviruses were first packed in HEK293T cells by the specified pTRIPZ lentivector with the packaging plasmids, psPAX2 and pMD2.G. Supernatants containing viral particles (48 - 96 hours post transfection) were used to infect the target cells in the presence of freshly added hexadimethrine bromide ([…]). Seventy-two hours post-transfection, the cells were selected and maintained in appropriate culture medium containing puromycin (0.125 - 0.5 µg/mL).
To assess cell proliferation, 10 000 cells were plated in triplicates in 96-well plate. Proliferation was measured every 24 h for five days using Resazurin colorimetric assay. […] ThioTEPA was dissolved in DMSO and added similarly to a final concentration of 10-100 µM. Doxorubicin was dissolved in H2O and added to a final concentration of 100-120 nM. Spheres from pre-GT20 cells were treated with Cisplatin at a final concentration of 10 µM. Number of SOX9-positive cells per spheres was counted in 10 spheres in treated (Cisplatin) and untreated (DMSO) conditions. Statistical significance was calculated using a unpaired non-parametric Mann-Whitney test.

Series [2] has as its system GTML cells. The series can be described thus: Drug treatment and proliferation assay (Resazurin/Alamar blue), primary tumor cells. Type of series: cell-based, mouse. The protocol:
Tumor cells (GTML, GTS and preGTS) were isolated as previously described from tumor bearing mice (Cancer Cell 2012, 21: 601-613) and cultured as neurospheres in serum-free conditions with Neurobasal (NB) media, additional B27 supplement, 100 units Penicillin and 0.1 mg/ml Streptomycin, 2 mM L-glutamine, 1:500 Antibiotic-Antimycotic, 20 ng/ml EGF and 20 ng/ml FGF-2. Human MB002 primary cell culture was obtained from Dr. Yoon Jae-Cho and cultured in serum-free conditions, 1:1 of Neurobasal Media (-vitamin A) and DMEM/F12 with Sodium Pyruvate, NEAA, HEPES, GlutaMAX, 100 units Penicillin and 0.1 mg/ml Streptomycin, B27 supplement, 20 ng/ml EGF and 20 ng/ml FGF-2, 1X LIF and 1X Heparin as previously described Clin Cancer Res 2014, 20: 912-925. […]
To assess cell proliferation, 10 000 cells were plated in triplicates in 96-well plate. Proliferation was measured every 24 h for five days using Resazurin colorimetric assay. […] Number of SOX9-positive cells per spheres was counted in 10 spheres in treated (Cisplatin) and untreated (DMSO) conditions. Statistical significance was calculated using a unpaired non-parametric Mann-Whitney test.

The conditions of series [3]: in children and in adults; cited from earlier work.
The test system of series [4] is pre-GT20 cells. Description: Cisplatin treatment of tumor sphere cultures, SOX9 staining and cell counts. In kind it is cell-based, mouse. The following applies: pre-GTS tumor spheres, 10 µM, 72 h in culture. As for the experimental part:
Brains were fixed in 4% PFA and embedded in paraffin block. preGT20 sphere cultures were fixed in 4 % PFA for a minimum of 12 hours at 4° C. and then embedded in HistoGel followed by paraffin embedding. 6-7 µm sections of paraffin-embedded tissue were used for all staining. The complete protocol for the IHC was described previously (Genes & development 2010, 24: 1059-1072).
To assess cell proliferation, 10 000 cells were plated in triplicates in 96-well plate. Proliferation was measured every 24 h for five days using Resazurin colorimetric assay. The MGMT inhibitor Lomeguatrib was dissolved in DMSO and added to cells 24 h post cell plating to a final concentration of 20 µM. ThioTEPA was dissolved in DMSO and added similarly to a final concentration of 10-100 µM. Doxorubicin was dissolved in H2O and added to a final concentration of 100-120 nM. Spheres from pre-GT20 cells were treated with Cisplatin at a final concentration of 10 µM. Number of SOX9-positive cells per spheres was counted in 10 spheres in treated (Cisplatin) and untreated (DMSO) conditions. Statistical significance was calculated using a unpaired non-parametric Mann-Whitney test.

Series [5] concerns GTML-pSOX9-GFP cells. The series can be described thus: FACS quantification of GFP (SOX9)-positive cells after cisplatin treatment. The settings on record: 24 h treatment. In kind it is cell-based, mouse. As for the experimental part:
Tumor burdened GTML;SOX9-eGFP mice were sacrificed and tumors dissociated, cells cultured as we described above. Cells were harvested, accutased and filtered with 30 µm cell strainer, then sorted for GFP-positive (SOX9) cells (488_FITC-A) and GFP-negative cell population. For cisplatin treatment experiment, cells were treated with cisplatin 24 h before cell sorting. The BD FACSMelody was used for sorting and quantifying in this experiment. MB002-pSOX9-GFP cells were dissociated using accutase and sorted for GFP expression (488_FITC-A). The BD FACSarialll was used for this experiment and it was analyzed using BD FACSDiVa version 8.0.

In series [6] the test system is GTML2 and GTML3 cerebellar allografts. Description: Survival of Nude mice allografted with GTML cell lines after dox diet (minimal residual disease). Type of series: in vivo, mouse. The settings on record: 7 days of dox treatment. The protocol: Injections of tumor cells into mouse brains were performed as thoroughly described elsewhere (Cancer Cell 2016, 29: 311-323; Cancer Cell 2012, 21: 601-613) and as follows. For allograft and in vivo transplantation studies, adult Nude mice were anesthetized and cerebellar allografts generated by injection of 100,000 cells into the cerebellum. Mice were monitored until phenotypic presentation of a brain tumor, at which point they were euthanized. At sacrifice, whole brains were excised and biopsies taken for experimental procedures. PDX models used included BT084 (metastatic SHH MB established in Dr. Till Milde’s lab, Heidelberg, Germany), Med-211FH, Med-411FH (metastatic Group 3 MBs established in Dr. Jim Olson’s lab, Seattle, USA) and ICb-1572MB (metastatic Group 3 MB established in Dr. Xiaonan Li’s lab, Houston, USA) all obtained from Dr. Robert Wechsler-Reya’s lab and used as described elsewhere (Cancer Cell 2016, 29: 311-323). Orthotopic PDX growth was studied in brain and spinal cord in NSG mice that were maintained in the animal facilities at Sanford Burnham Prebys Medical Discovery Institute (SBP) and at the Sanford Consortium for Regenerative Medicine. […]
All animal experiments were conducted once. Animal survival was graphically shown as a Kaplan Meier curve, made and assessed using GraphPad Prism 7 software. The p-value for survival curves is calculated using a LogRank test.

“Also recorded” adds a separate entry of the source.

Take `COc1cc2ncnc(Nc3ccc(F)c(Cl)c3)c2cc1OCCCN1CCOCC1` [Gefitinib]: the “specificity for targeting forebrain GTS cells” value in series [1] (data not shown) is “not specific for targeting forebrain GTS cells”.

As to `Nc1nc(OCc2cc(Br)cs2)c2[nH]cnc2n1` [Lomeguatrib], the “proliferation of GTML cells” value in series [2] (20 µM, 24, 48 and 72 h, GTML3 and GTML13 cell lines) was “did not show any efficacy”. Also, in series [1] (10 µM Lomeguatrib added to ThioTEPA (10, 100 µM), 72 h), the “proliferation of GTS cells, combination with ThioTEPA” value is reported as “decreased proliferation of GTS tumor cells even further; also recorded: significantly decreases proliferation”. In addition, the “proliferation of GTS cells” value in series [1] (20 µM, 24, 48 and 72 h, GT20 and GT21 cell lines) is “significantly decreased proliferation”.

Take `CC(C)[C@H](N)C(=O)OCC(CO)OCn1cnc2c(=O)nc(N)[nH]c21` (stereo partly drawn) [ValGCV, valganciclovir]: in series [3], the “blood brain barrier penetration” value is “penetrates the BBB well” and the “concentration in the cerebrospinal fluid (CSF)” value is given as “high concentrations”.

Take `N.N.[Cl][Pt][Cl]` [cisplatin, Cisplatin]: the “cell survival and apoptotic cell death” value in series [4] is “decreased cell survival and massive apoptotic cell death”. For the same molecule, the “number of SOX9-positive cells surviving the treatment” value in series [4] (vs DMSO) is “significant upregulation and increase in the number of SOX9-positive cells”. Moreover, in series [5] (FACS of GFP-positive cells), the “number of SOX9-positive cells compared to DMSO control” value is reported as “increases the number of SOX9-positive cells”. Also, in series [5] (GFP-positive cells by FACS, increase from 2.4% (DMSO control)), the SOX9-positive cells stood at 8.6%.

Consider `C[C@H]1c2cccc(O)c2C(=O)C2=C(O)[C@]3(O)C(=O)C(C(N)=O)=C(O)[C@@H](N(C)C)[C@@H]3[C@@H](O)[C@@H]21` [dox, doxycycline hyclate], for which, in series [6], the “overall survival, GTML2 allograft” value worked out at 16.5 weeks and the “overall survival, GTML3 allograft” value is reported as 9 weeks.

Consider `COc1cccc2c1C(=O)c1c(O)c3c(c(O)c1C2=O)C[C@@](O)(C(=O)CO)C[C@@H]3O[C@H]1C[C@H](N)[C@H](O)[C@H](C)O1` [doxorubicin], for which the “viable GTML cells” value in series [2] (200 nM, 72 h) is reported as “nearly half of the cells were still viable”. In series [1] (200 nM, 72 h), the “viable fGTS (forebrain recurrence) cells” value is on record as “completely depleted” and the “viable hGTS (hindbrain recurrence) cells” value is on record as “nearly half of the cells were still viable”.
